# Molecular target: Tyrosine-protein kinase BTK (Homo sapiens, UniProt Q06187)
# Assay: Biochemical kinase assay wt-BTK
# Procedure: To determine the inhibitory activity of compounds on wt-BTK enzyme activity, the IMAP assay (Molecular Devices) was used. Compounds were serially diluted in dimethylsulfoxide (DMSO) and subsequently in 4% DMSO in IMAP reaction buffer, which consists of 10 mM Tris-HCl, pH 15 7.5, 10 mM MgCl2, 0.01% Tween-20, 0.1% NaN3 and 1 mM freshly prepared dithiotreitol (DTT). Compound solution was mixed with an equal volume of full-length wt-BTK enzyme (Carna Biosciences, cat. no. 08-180) in IMAP reaction buffer. After pre-incubation of 1 hour in the dark at room temperature, fluorescein-labeled MBP-derived substrate peptide (Molecular Devices, cat. no. RP 7123) was added, followed by ATP to start the reaction. Final enzyme concentration was 1.2 nM, final substrate concentration 50 nM, and final ATP concentration was 4 μM. The reaction was allowed to proceed for 2 hours at room temperature in the dark. The reaction was stopped by quenching with IMAP progressive binding solution according to the protocol of the manufacturer (Molecular Devices). Fluorescein polarization was measured on an Envision multimode reader (Perkin Elmer, Waltham, MA, U.S.A.).
# Tyrosine-protein kinase BTK, sequence (Q06187 whole entry): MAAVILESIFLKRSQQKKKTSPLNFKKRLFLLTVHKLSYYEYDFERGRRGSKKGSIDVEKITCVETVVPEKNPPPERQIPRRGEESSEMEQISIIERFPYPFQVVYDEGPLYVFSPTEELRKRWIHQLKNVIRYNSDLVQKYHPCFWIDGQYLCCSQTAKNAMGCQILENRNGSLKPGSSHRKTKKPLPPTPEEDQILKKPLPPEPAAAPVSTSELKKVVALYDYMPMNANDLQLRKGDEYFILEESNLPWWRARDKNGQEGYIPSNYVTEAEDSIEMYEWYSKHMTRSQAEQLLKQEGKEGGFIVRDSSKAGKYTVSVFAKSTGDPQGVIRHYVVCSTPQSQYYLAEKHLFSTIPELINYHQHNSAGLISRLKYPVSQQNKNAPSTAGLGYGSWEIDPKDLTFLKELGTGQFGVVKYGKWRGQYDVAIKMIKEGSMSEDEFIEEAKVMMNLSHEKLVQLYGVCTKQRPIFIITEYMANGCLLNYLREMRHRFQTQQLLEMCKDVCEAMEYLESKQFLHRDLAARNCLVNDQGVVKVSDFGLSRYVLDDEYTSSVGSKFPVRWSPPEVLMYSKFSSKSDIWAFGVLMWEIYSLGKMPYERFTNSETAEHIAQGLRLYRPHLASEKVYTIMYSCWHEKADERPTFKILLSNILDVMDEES
structure (smiles),measurement,value
"C[C@@H]1CCn2nc(-c3ccc(C(=O)Nc4cc(C(F)(F)F)ccn4)cc3)c3c(N)ncc(c32)/C=C/CCCCC(=O)N1 [US20250074911, Example 54]",IC50,< 5 nM

# From BindingDB's records for patent US20250074911 (Crossfire Oncology Holding, 2025)
